Test results: patent publication US20090143361A1, “Pyrido[3,2-E]Pyrazines, Process For Preparing The Same, And Their Use As Inhibitors Of Phosphodiesterase 10” (ELBION GMBH, priority 2007, published 2009)
Like-named read-outs stand apart in the source and are kept apart here.

Tests used:
[1] = biological target: T1, human recombinant PDE10A (Homo sapiens, UniProt Q9Y233); assay: Inhibition of PDE10, human recombinant PDE10A ([3H]-cAMP SPA); assay type: biochemical; details: Table 9; read-out: hPDE10 IC50
T1 construct: made in house; host or cells: SF21 insect cells (baculovirus)
T1 sequence (Q9Y233 1-779 isoform Q9Y233-1): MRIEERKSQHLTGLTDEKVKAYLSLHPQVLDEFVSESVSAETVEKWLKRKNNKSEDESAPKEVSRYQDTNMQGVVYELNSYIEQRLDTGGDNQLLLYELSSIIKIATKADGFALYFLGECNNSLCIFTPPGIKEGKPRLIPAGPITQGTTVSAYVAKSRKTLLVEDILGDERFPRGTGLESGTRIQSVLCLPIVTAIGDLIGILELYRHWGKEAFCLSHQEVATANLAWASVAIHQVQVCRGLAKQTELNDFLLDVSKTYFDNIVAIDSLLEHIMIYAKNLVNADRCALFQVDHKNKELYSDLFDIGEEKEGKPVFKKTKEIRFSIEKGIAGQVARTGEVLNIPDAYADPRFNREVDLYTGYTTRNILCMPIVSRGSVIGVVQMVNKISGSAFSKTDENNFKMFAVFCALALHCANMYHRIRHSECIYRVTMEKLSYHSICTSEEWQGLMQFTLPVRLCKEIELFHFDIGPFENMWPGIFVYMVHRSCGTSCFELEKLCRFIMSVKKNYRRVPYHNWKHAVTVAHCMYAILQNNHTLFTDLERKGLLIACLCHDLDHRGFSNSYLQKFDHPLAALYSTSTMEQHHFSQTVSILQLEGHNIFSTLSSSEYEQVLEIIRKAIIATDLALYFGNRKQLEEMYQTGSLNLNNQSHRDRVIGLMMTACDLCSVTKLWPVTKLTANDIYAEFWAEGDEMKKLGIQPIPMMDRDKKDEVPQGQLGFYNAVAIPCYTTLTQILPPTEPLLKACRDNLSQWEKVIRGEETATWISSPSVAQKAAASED
Protocol: The gene was than inserted into a baculovirus vector, ligated with the baculovirus DNA. The enzyme-protein was expressed in SF21-cells. The enzyme was isolated from these cells by harvesting the cells by a centrifugation at 200 g to collect the cells. The cells were resuspended in 50 mM Tris-HCl/5 mM MgCl2 buffer (pH=7.4) and lysed by a sonication of the cells. The cytosolic PDE10A was obtained by a centrifugation at 48000 g for 1 h in the supernatant and stored at −70° C. PDE10 activity was determined in a one step procedure in microtiterplates. […] Nonspecific activity was tested without the enzyme. The reaction was initiated by addition of the substrate solution and was carried out at 37° C. for 30 minutes. Enzymatic activity was stopped by addition of 25 μl YSi-SPA-beads (Amersham-Pharmacia). One hour later the mixture was measured in a liquid scintillation counter for microtiterplates (Microbeta Trilux). To pipette the incubation mixture a robot Biomek (Fa. Beckman) is used. […] For determination of IC50 values the Hill-plot, 2-parameter-model, was used.

[2] = biological target: PDE10 from pig striatum (Sus scrofa, UniProt A0A287B941); assay: Inhibition of PDE10 from pig striatum ([3H]-cAMP SPA); assay type: biochemical
Protocol: Phosphodiesterase isoenzyme 10 (PDE10) activity was determined in preparations of human recombinant PDE10A and PDE10 from pig striatum, respectively.
Striatum from male hybrid pigs (150 kg) were collected and frozen at −70° C.
At the day of preparation 0.5 g striatum was homogenised in 10 ml 50 mM Tris/Mg-buffer at 4° C. and centrifuged for one hour at 100000 g. The supernatant was removed and the pellet was resuspended in the same buffer, but containing 1% Triton and incubated for 45 min at 4° C. The membrane fraction was applied onto a 5 ml Hi Trap™ QHP column at the Akta-FPLC. After washing the column the bound PDE protein was eluted with an increasing sodium chloride gradient (O mM-500 mM sodium chloride) in 50 mM Tris/Mg-buffer at 4° C. in the presence of 1% Triton. […] The fractions with PDE10-activity were pooled and frozen in aliquots until use at −20° C.
(§1) PDE10 activity was determined in a one step procedure in microtiterplates. […] Nonspecific activity was tested without the enzyme. The reaction was initiated by addition of the substrate solution and was carried out at 37° C. for 30 minutes. Enzymatic activity was stopped by addition of 25 μl YSi-SPA-beads (Amersham-Pharmacia). One hour later the mixture was measured in a liquid scintillation counter for microtiterplates (Microbeta Trilux). To pipette the incubation mixture a robot Biomek (Fa. Beckman) is used. […] For determination of IC50 values the Hill-plot, 2-parameter-model, was used.
The phosphodiesterase isoenzyme 10 (PDE10) activity was determined in preparations of rat, pig and guinea pig striatum respectively. Striatum from male Wistar rats (180-200 g), male hybrid pigs (150 kg) and male guinea pigs (CRL (HA), 500 g) respectively were collected and frozen at −70° C.
At the day of preparation 0.5 g striatum was homogenized in 10 ml 50 mM Tris/Mg-buffer at 4° C. and centrifuged for one hour at 100000 g. The supernatant is called the cytosolic fraction and was removed and stored on ice. The pellet was resuspended in the same buffer, but containing 1% Triton and incubated for 45 min at 4° C. Both fractions were independently applied onto a 5 ml Hi Trap™ QHP column at the Akta-FPLC. After washing the columns the bound PDE protein was eluted with an increasing sodium chloride gradient (0 mM-500 mM sodium chloride) in 50 mM Tris/Mg-buffer at 4° C. for the cytosolic fraction and in the presence of 1% Triton for the membrane fraction. […] The fractions with PDE10-activity were pooled and frozen in aliquots until use at −20° C.
as §1, with “YSi-SPA beads” for “YSi-SPA-beads”

[3] = Table 8, read-out: PDE10 pig IC50
[4] = Table 7, read-out: PDE10 pig IC50

Row | IC50 [1] [nM] | IC50 [2, 3] [nM] | SMILES | other results
1 | > 100 | – | COc1ccc2nc(C#N)c3c(C)nc(-c4cnccc4C)n3c2n1 [Example 169, 2-methoxy-7-methyl-9-(4-methylpyridin-3-yl)imidazo[1,5-a]pyrido[3,2-e]pyrazine-6-carbonitrile] | –
2 | > 100 | – | COc1ccc2nc(C#N)c3c(C)nc(-c4ccc(F)nc4C)n3c2n1 [Example 172, 9-(6-fluoro-2-methylpyridin-3-yl)-2-methoxy-7-methylimidazo[1,5-a]pyrido[3,2-e]pyrazine-6-carbonitrile] | –
3 | < 10 | – | Cc1nc(-c2ccc(C(N)=O)cc2)n2c1c(C)nc1ccc(OCC3CC3)nc12 [Example 142, 4-[2-(cyclopropylmethoxy)-6,7-dimethylimidazo[1,5-a]pyrido[3,2-e]pyrazin-9-yl]benzamide] | –
4 | < 10 | – | Cc1ccccc1-c1nc(C)c2c(C)nc3ccc(OCCF)nc3n12 [Example 154, 2-(2-fluoroethoxy)-6,7-dimethyl-9-(2-methylphenyl)imidazo[1,5-a]pyrido[3,2-e]pyrazine] | –
5 | 10 to 100 | – | Cc1nc(-c2ccc(Cl)cc2C(F)(F)F)n2c1c(C)nc1ccc(OCC3CC3)nc12 [Example 137, 9-[4-chloro-2-(trifluoromethyl)phenyl]-2-(cyclopropylmethoxy)-6,7-dimethylimidazo[1,5-a]pyrido[3,2-e]pyrazine] | –
6 | < 10 | – | COc1ccc2nc(C)c3c(C)nc(-c4ccc(F)c(C(N)=O)c4)n3c2n1 [Example 130, 2-fluoro-5-(2-methoxy-6,7-dimethylimidazo[1,5-a]pyrido[3,2-e]pyrazin-9-yl)benzamide] | –
7 | > 100 | – | COc1ccc2nc(C)c3c(C)nc(-c4ccc(N5CCOCC5)nc4)n3c2n1 [Example 187, 2-methoxy-6,7-dimethyl-9-(6-morpholin-4-ylpyridin-3-yl)imidazo[1,5-a]pyrido[3,2-e]pyrazine] | –
8 | > 100 | – | COc1ccc2nc(C)c3c(C)nc(-c4cccc(N5CCOCC5)c4)n3c2n1 [Example 188, 2-methoxy-6,7-dimethyl-9-(3-morpholin-4-ylphenyl)imidazo[1,5-a]pyrido[3,2-e]pyrazine] | –
9 | > 100 | – | COc1ccc2nc(C)c3c(C)nc(-c4cnn(CCN5CCOCC5)c4)n3c2n1 [Example 190, 2-methoxy-6,7-dimethyl-9-[1-(2-morpholin-4-ylethyl)-1H-pyrazol-4-yl]imidazo[1,5-a]pyrido[3,2-e]pyrazine] | –
10 | < 10 | – | Cc1nc(-c2cc(F)cc(C(N)=O)c2)n2c1c(C)nc1ccc(OCC3CC3)nc12 [Example 145, 3-[2-(cyclopropylmethoxy)-6,7-dimethylimidazo[1,5-a]pyrido[3,2-e]pyrazin-9-yl]-5-fluorobenzamide] | –
11 | > 100 | – | CCCn1cc(-c2nc(C)c3c(C)nc4ccc(OC)nc4n23)cn1 [Example 189, 2-methoxy-6,7-dimethyl-9-(1-propyl-1H-pyrazol-4-yl)imidazo[1,5-a]pyrido[3,2-e]pyrazine] | –
12 | 10 to 100 | – | COc1ccc2nc(C)c3c(C)nc(-c4ccc(Cl)c(C(N)=O)c4)n3c2n1 [Example 131, 2-chloro-5-(2-methoxy-6,7-dimethylimidazo[1,5-a]pyrido[3,2-e]pyrazin-9-yl)benzamide] | –
13 | > 100 | – | COc1ccc(-c2nc(C)c3c(C)nc4ccc(OCC5CC5)nc4n23)cn1 [Example 139, 2-(cyclopropylmethoxy)-9-(6-methoxypyridin-3-yl)-6,7-dimethylimidazo[1,5-a]pyrido[3,2-e]pyrazine] | –
14 | 10 to 100 | – | COc1ccc2nc(C)c3c(C)nc(-c4ccnc(F)c4)n3c2n1 [Example 174, 9-(2-fluoropyridin-4-yl)-2-methoxy-6,7-dimethylimidazo[1,5-a]pyrido[3,2-e]pyrazine] | –
15 | – | > 100 | COc1ccc2nc(C)c3c(C)nc(-c4cccc(C(=O)N(C)C)c4)n3c2n1 [Example 104, 3-(2-Methoxy-6,7-dimethylimidazo[1,5-a]pyrido[3,2-e]pyrazin-9-yl)-N,N-dimethylbenzamide] | –
16 | – | < 10 | COc1ccc2nc(C)c3c(C)nc(-c4cc(C(N)=O)ccc4F)n3c2n1 [Example 106, 4-Fluoro-3-(2-methoxy-6,7-dimethylimidazo[1,5-a]pyrido[3,2-e]pyrazin-9-yl)benzamide] | –

The remaining lines, values behind:

Row | SMILES | IC50 [1] [nM] | IC50 [2, 3] [nM] | other results
17 | COc1ccc2nc(C)c3c(C)nc(-c4cscc4C)n3c2n1 [Example 69, 2-Methoxy-6,7-dimethyl-9-(4-methyl-3-thienyl)imidazo[1,5-a]pyrido[3,2-e]pyrazine] | – | < 10 | –
18 | COc1ccc2nc(C)c3c(C)nc(-c4cccc(C(F)(F)F)c4)n3c2n1 [Example 66, 2-Methoxy-6,7-dimethyl-9-[3-(trifluoromethyl)phenyl]imidazo[1,5-a]pyrido[3,2-e]pyrazine] | – | 10 to 100 | –
19 | COc1ccc(-c2nc(C)c3c(C)nc4ccc(OC)nc4n23)cn1 [Example 28, 2-Methoxy-9-(6-methoxypyridin-3-yl)-6,7-dimethylimidazo[1,5-a]pyrido[3,2-e]pyrazine] | – | – | IC50 [2, 4]: 10 to 100 nM
20 | COc1ccc2nc(C)c3c(C)nc(-c4cccc(C(N)=O)c4)n3c2n1 [Example 93, 3-(2-Methoxy-6,7-dimethylimidazo[1,5-a]pyrido[3,2-e]pyrazin-9-yl)benzamide] | – | < 10 | –
21 | COc1ccc2nc(C)c3c(C)nc(C#Cc4ccccc4C)n3c2n1 [Example 99, 2-Methoxy-6,7-dimethyl-9-[(2-methylphenyl)ethynyl]imidazo[1,5-a]pyrido[3,2-e]pyrazine] | – | > 100 | –
22 | COc1ccc2nc(C)c3c(C)nc(-c4ccsc4)n3c2n1 [Example 56, 2-Methoxy-6,7-dimethyl-9-(3-thienyl)imidazo[1,5-a]pyrido[3,2-e]pyrazine] | – | 10 to 100 | –
23 | COc1ccc2nc(C)c3c(C)nc(-c4cccc(C#N)c4)n3c2n1 [Example 73, 3-(2-Methoxy-6,7-dimethylimidazo[1,5-a]pyrido[3,2-e]pyrazin-9-yl)benzonitrile] | – | 10 to 100 | –
24 | COc1ccc2nc(C#N)c3c(C)nc(-c4ccc(Cl)cc4Cl)n3c2n1 [Example 112, 9-(2,4-dichlorophenyl)-2-methoxy-7-methylimidazo[1,5-a]pyrido[3,2-e]pyrazine-6-carbonitrile] | – | – | IC50 ([2]; Table 9, cells marked pPDE10, read-out: IC50 (nM) (pPDE10)): < 10 nM
25 | COc1ccc2nc(C)c3c(C)nc(-c4cccc(F)c4)n3c2n1 [Example 5, 9-(3-Fluorophenyl)-2-methoxy-6,7-dimethylimidazo[1,5-a]pyrido[3,2-e]pyrazine] | – | – | IC50 [2, 4]: 10 to 100 nM
26 | COc1ccc2nc(C)c3c(C)nc(-c4cccc(F)c4C)n3c2n1 [Example 88, 9-(3-Fluoro-2-methylphenyl)-2-methoxy-6,7-dimethylmidazo[1,5-a]pyrido[3,2-e]pyrazine] | – | < 10 | –
27 | COc1ccc2nc(C)c3c(C)nc(-c4cccnc4OC)n3c2n1 [Example 29, 2-Methoxy-9-(2-methoxypyridin-3-yl)-6,7-dimethylimidazo[1,5-a]pyrido[3,2-e]pyrazine] | – | – | IC50 [2, 4]: 10 to 100 nM
28 | COc1ccc2nc(C)c3c(C)nc(-c4cc(C)ccc4Cl)n3c2n1 [Example 78, 9-(2-Chloro-5-methylphenyl)-2-methoxy-6,7-dimethylimidazo[1,5-a]pyrido[3,2-e]pyrazine] | – | < 10 | –
29 | COc1ccc2nc(C)c3c(C)nc(-c4ccc(C(N)=O)cc4)n3c2n1 [Example 85, 4-(2-Methoxy-6,7-dimethylimidazo[1,5-a]pyrido[3,2-e]pyrazin-9-yl)benzamide] | – | < 10 | –
